{"source": "patent US5229419A", "about": "“Chemotherapeutically active acetogenins” (Purdue Research Foundation, priority 1992, dated 1993)", "key": {"[1]": {"tested_on": "OVCAR-5", "experiment": "NCI in vitro cytotoxicity, ovarian cancer", "format": "cell-based", "conditions": "Homo sapiens"}, "[2]": {"tested_on": "cotton aphid (CA) Aphis gossypii", "experiment": "pesticidal bioassay, cotton aphid (CA)", "format": "in vivo", "conditions": "at 1 ppm", "procedure": "(§1) Pesticidal bioassays were conducted at Eli Lilly Laboratories (Greenfield, Ind.) following standard procedures with eight indicator organisms: mosquito larvae (ML) Aedes aegypti (in the media), blowfly larvae (BFL) (1% in the diet), corn root worm (CRW) Diabrotics undecimcuntata howardii (in soil), two-spotted spider mite (2SSM) Tetranychus urticae (on foliage), southern army worm (SAW) Spodoptera eridania (on foliage), melon aphid (MA) (5000 ppm on foliage), cotton aphid (CA) Aphis gossypii, (on foliage) and Haemonchus contortus (HC) (a nematode, 0.1% in the media)."}, "[3]": {"tested_on": "CCRF-CEM", "experiment": "NCI in vitro cytotoxicity, leukemia", "format": "cell-based", "conditions": "Homo sapiens"}, "[4]": {"tested_on": "UO-31", "experiment": "NCI in vitro cytotoxicity, renal cancer", "format": "cell-based", "conditions": "Homo sapiens"}, "[5]": {"tested_on": "A2780", "experiment": "NCI in vitro cytotoxicity, ovarian cancer", "format": "cell-based", "conditions": "Homo sapiens"}, "[6]": {"tested_on": "P388/ADR", "experiment": "NCI in vitro cytotoxicity, leukemia", "format": "cell-based", "conditions": "Mus musculus"}, "[7]": {"tested_on": "CAKI-1", "experiment": "NCI in vitro cytotoxicity, renal cancer", "format": "cell-based", "conditions": "Homo sapiens"}, "[8]": {"tested_on": "H69", "experiment": "NCI in vitro cytotoxicity, small cell lung cancer", "format": "cell-based", "conditions": "Homo sapiens"}, "[9]": {"tested_on": "9KB (human nasopharyngeal carcinoma)", "experiment": "9KB cytotoxicity", "format": "cell-based", "procedure": "Occasional checks in the potato disc (PD) assay assured us that antitumor activity was present [Ferrigni et al., J. Nat. Prod., 45; 679-686 (1982)]. Cytotoxicity tests were performed at the Purdue Cell Culture Laboratory, Purdue Cancer Center, using standard protocols for 9KB (human nasopharyngeal carcinoma) and 9PS (a chemically-induced murine lymphocytic leukemia) [Suffness et al., Methods In Cancer Research. Vol. 16: 73 (1979), V. T. DeVita, Jr. and H. Busch eds., Academic Press, New York], 9ASK (astrocytoma reversal) [Lgarashi et al., Cell Struct. and Funct., 3: 107 (1978)], A-549 (human lung carcinoma) [Giard et al., J. Nat. Cancer Inst., 51: 1417-1423 (1973)], and HT-29 (human colon adenocarcinoma) [Fogh J. (ed.), Human Tumor Cells, In Vitro, Plenum Press, New York: 115-159 (1975)].\nAnticancer activity is a potential use even for the crude extract. The bioassay results for the lethality of brine shrimp (BST), the inhibition of crown gall tumors on potato discs (PD), the reversal in morphology of db-cAMP induced AC glioma cells from that of mature, differentiated astrocytes to that of immature AC glioma cells (mouse brain cells) (9ASK), the dose that inhibits cell growth to one-half that of untreated poorly differentiated human epidermic carcinoma (9KB), the dose that inhibits cell growth to one-half that of a methylcholanthrene-induced lymphoid neoplasm in a DBA/2 mouse (9PS), and the percent displacement in a protein kinase C test for initial extract fractions are shown in Table 1. Obviously, the bioactivity is concentrated in F005."}, "[10]": {"tested_on": "HT29", "experiment": "NCI in vitro cytotoxicity, colon cancer", "format": "cell-based", "conditions": "Homo sapiens, HT-29"}, "[11]": {"tested_on": "SK-MES-1", "experiment": "NCI in vitro cytotoxicity, non-small cell lung cancer", "format": "cell-based", "conditions": "Homo sapiens"}, "[12]": {"tested_on": "OVCAR-8", "experiment": "NCI in vitro cytotoxicity, ovarian cancer", "format": "cell-based", "conditions": "Homo sapiens"}, "[13]": {"tested_on": "H82", "experiment": "NCI in vitro cytotoxicity, small cell lung cancer", "format": "cell-based", "conditions": "Homo sapiens"}, "[14]": {"tested_on": "H23", "experiment": "NCI in vitro cytotoxicity, non-small cell lung cancer", "format": "cell-based", "conditions": "Homo sapiens"}, "[15]": {"tested_on": "SNB-44", "experiment": "NCI in vitro cytotoxicity, CNS cancer", "format": "cell-based", "conditions": "Homo sapiens, SNB44"}, "[16]": {"tested_on": "H146", "experiment": "NCI in vitro cytotoxicity, small cell lung cancer", "format": "cell-based", "conditions": "Homo sapiens"}, "[17]": {"tested_on": "SNB-75", "experiment": "NCI in vitro cytotoxicity, CNS cancer", "format": "cell-based", "conditions": "Homo sapiens"}, "[18]": {"tested_on": "SK-MEL5", "experiment": "NCI in vitro cytotoxicity, melanoma", "format": "cell-based", "conditions": "Homo sapiens, SK-MEL-5"}, "[19]": {"tested_on": "A-549(ATCC)", "experiment": "NCI in vitro cytotoxicity, non-small cell lung cancer", "format": "cell-based", "conditions": "Homo sapiens, A549", "source_text": "Isolated pure compounds were sent to the National Institute of Health, National Cancer Institute, Bethesda, Md., for testing in human cancer cell line panels including leukemia, non-small cell lung cancer, small cell lung cancer, CNS cancer, melanoma, ovarian cancer and renal cancer.\nTo test further the selective specificity of antitumor activities, bullatacin was sent to the NIH, NCI at Bethesda, Md., for their human tumor cell line panel tests including leukemia, non-small cell lung cancer, small cell lung cancer, colon cancer, breast cancer, CNS cancer melanoma, ovarian cancer, and renal cancer."}, "[20]": {"tested_on": "SN12-K1", "experiment": "NCI in vitro cytotoxicity, renal cancer", "format": "cell-based", "conditions": "Homo sapiens, SN12K1"}, "[21]": {"tested_on": "MALME-3M", "experiment": "NCI in vitro cytotoxicity, melanoma", "format": "cell-based", "conditions": "Homo sapiens"}, "[22]": {"tested_on": "HL-60 TB", "experiment": "NCI in vitro cytotoxicity, leukemia", "format": "cell-based", "conditions": "Homo sapiens"}, "[23]": {"tested_on": "MCF7", "experiment": "NCI in vitro cytotoxicity, breast cancer", "format": "cell-based", "conditions": "Homo sapiens"}, "[24]": {"tested_on": "two-spotted spider mite (2SSM) Tetranychus urticae", "format": "in vivo", "conditions": "at 10 ppm", "procedure": "as §1\n(§2) Pesticidal bioassays on initial fractions were conducted at Eli Lilly Laboratories (Greenfield, Ind.) following standard procedures with seven indicator organisms: mosquito larvae (ML), blow fly larvae (BFL), corn root worm (CRW), two-spotted spider mite (2SSM), southern army worm (SAW), melon aphid (MA), and Haemonchus contortus (HC)."}, "[25]": {"tested_on": "corn root worm (CRW) Diabrotics undecimcuntata howardii", "format": "in vivo", "conditions": "at 24 ppm", "procedure": "as §1, §2"}, "[26]": {"tested_on": "H522", "experiment": "NCI in vitro cytotoxicity, non-small cell lung cancer", "format": "cell-based", "conditions": "Homo sapiens"}, "[27]": {"tested_on": "HOP-62", "experiment": "NCI in vitro cytotoxicity, non-small cell lung cancer", "format": "cell-based", "conditions": "Homo sapiens"}}, "data": [{"smiles": "CCCCCCCCCCC(O)C1CCC(C2CCC(C(O)CCCCCCCCCCC(O)CC3=CC(C)OC3=O)O2)O1", "note": "(centres unmarked) [Bullatacin]", "values": [{"measurement": "IC50", "setting": "[1]", "result": 8.8, "unit": "µg/mL"}, {"measurement": "IC90", "setting": "[1]", "result": "> 9.26", "unit": "µg/mL"}, {"measurement": "toxicity to cotton aphids", "setting": "[2]", "result": "significantly toxic"}, {"measurement": "IC50", "setting": "[3]", "result": 0.0894, "unit": "ng/mL"}, {"measurement": "IC90", "setting": "[3]", "result": 0.0694, "unit": "µg/mL"}, {"measurement": "IC50", "setting": "[4]", "result": 1.94, "unit": "µg/mL"}, {"measurement": "IC90", "setting": "[4]", "result": "> 9.26", "unit": "µg/mL"}, {"measurement": "IC50", "setting": "[5]", "result": 0.0377, "unit": "ng/mL"}, {"measurement": "IC90", "setting": "[5]", "result": 0.00065, "unit": "µg/mL"}, {"measurement": "IC50", "setting": "[6]", "result": "< 0.000926", "unit": "µg/mL"}, {"measurement": "IC90", "setting": "[6]", "result": 2.56, "unit": "µg/mL"}, {"measurement": "IC50", "setting": "[7]", "result": 0.00394, "unit": "µg/mL"}, {"measurement": "IC90", "setting": "[7]", "result": "> 0.0924", "unit": "µg/mL"}, {"measurement": "IC50", "setting": "[8]", "result": 2.44, "unit": "µg/mL"}, {"measurement": "IC90", "setting": "[8]", "result": 7.52, "unit": "µg/mL"}, {"measurement": "9KB ED50", "setting": "[9]", "result": "6.188e-11", "unit": "ng/mL"}, {"measurement": "IC50", "setting": "[10]", "result": 0.00384, "unit": "µg/mL"}, {"measurement": "IC90", "setting": "[10]", "result": "> 0.0924", "unit": "µg/mL"}, {"measurement": "IC50", "setting": "[11]", "result": "> 0.0924", "unit": "µg/mL"}, {"measurement": "IC90", "setting": "[11]", "result": "> 0.0924", "unit": "µg/mL"}, {"measurement": "IC50", "setting": "[12]", "result": 2.57, "unit": "µg/mL"}, {"measurement": "IC90", "setting": "[12]", "result": 7.65, "unit": "µg/mL"}, {"measurement": "IC50", "setting": "[13]", "result": 1.99, "unit": "µg/mL"}, {"measurement": "IC90", "setting": "[13]", "result": 7.14, "unit": "µg/mL"}, {"measurement": "IC50", "setting": "[14]", "result": 2.38, "unit": "µg/mL"}, {"measurement": "IC90", "setting": "[14]", "result": 9.21, "unit": "µg/mL"}, {"measurement": "IC50", "setting": "[15]", "result": 4.42, "unit": "µg/mL"}, {"measurement": "IC90", "setting": "[15]", "result": "> 9.26", "unit": "µg/mL"}, {"measurement": "IC90", "setting": "[16]", "result": "> 9.26", "unit": "µg/mL"}, {"measurement": "IC50", "setting": "[17]", "result": 3.35, "unit": "µg/mL"}, {"measurement": "IC90", "setting": "[17]", "result": "> 9.26", "unit": "µg/mL"}, {"measurement": "IC50", "setting": "[18]", "result": "> 0.000926", "unit": "µg/mL"}, {"measurement": "IC90", "setting": "[18]", "result": 5.22, "unit": "µg/mL"}, {"measurement": "IC90", "setting": "[19]", "result": "> 0.0924", "unit": "µg/mL"}, {"measurement": "IC50", "setting": "[20]", "result": 0.0224, "unit": "ng/mL"}, {"measurement": "IC90", "setting": "[20]", "result": 0.000287, "unit": "µg/mL"}, {"measurement": "IC50", "setting": "[21]", "result": 2.82, "unit": "µg/mL"}, {"measurement": "IC90", "setting": "[21]", "result": 7.67, "unit": "µg/mL"}, {"measurement": "IC50", "setting": "[22]", "result": "< 0.000926", "unit": "µg/mL"}, {"measurement": "IC50", "setting": "[23]", "result": "> 0.0924", "unit": "µg/mL"}, {"measurement": "IC90", "setting": "[23]", "result": "> 0.0924", "unit": "µg/mL"}, {"measurement": "toxicity to two-spotted spider mites", "setting": "[24]", "result": "significantly toxic"}, {"measurement": "toxicity to southern corn rootworm", "setting": "[25]", "result": "significantly toxic"}, {"measurement": "IC50", "setting": "[26]", "result": 2.46, "unit": "µg/mL"}, {"measurement": "IC90", "setting": "[26]", "result": "> 9.24", "unit": "µg/mL"}, {"measurement": "IC50", "setting": "[27]", "result": "< 0.000926", "unit": "µg/mL"}, {"measurement": "IC90", "setting": "[27]", "result": 5.13, "unit": "µg/mL"}]}]}
